Test results published in ChEMBL document CHEMBL5046244, “Targeted Covalent Inhibition of Small CTD Phosphatase 1 to Promote the Degradation of the REST Transcription Factor in Human Cells” (J Med Chem, 2022).
Active and inactive are the calls of the source. The rule behind the calls is not given here.

Columns and labels:
HEK293 [1] = assay: Downregulation of REST protein expression in HEK293 cells at 10 uM incubated for 48 to 72 hrs by immunoblot analysis; format: functional, cell-based; conditions: Homo sapiens, time lower […], time upper 72.0 hrs
[2] = Downregulation of REST protein expression in HEK293 cells at 10 uM incubated for 6 hrs by immunoblot analysis relative to control; format: functional, Homo sapiens
[3] = Downregulation of REST protein expression in HEK293 cells at 10 uM incubated for 12 hrs by immunoblot analysis relative to control; format: functional, Homo sapiens
[4] = target: T1, Tyrosine-protein phosphatase non-receptor type 2 (Homo sapiens) (UniProt P17706); assay: Inhibition of TCPTP (unknown origin) at 25 to 30 uM; conditions: dose 25-30 µM
T1 sequence (whole entry): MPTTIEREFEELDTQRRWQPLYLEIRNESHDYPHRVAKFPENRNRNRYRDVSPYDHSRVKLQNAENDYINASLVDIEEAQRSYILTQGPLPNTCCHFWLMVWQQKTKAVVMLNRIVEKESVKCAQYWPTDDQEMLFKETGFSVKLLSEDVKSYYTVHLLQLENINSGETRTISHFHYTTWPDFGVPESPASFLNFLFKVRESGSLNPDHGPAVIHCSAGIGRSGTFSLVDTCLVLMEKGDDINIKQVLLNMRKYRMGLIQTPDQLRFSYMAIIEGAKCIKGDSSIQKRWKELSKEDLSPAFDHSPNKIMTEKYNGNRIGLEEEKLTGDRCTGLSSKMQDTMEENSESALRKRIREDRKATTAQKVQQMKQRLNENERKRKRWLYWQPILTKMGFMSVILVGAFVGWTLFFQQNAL

Homo sapiens [5] = species on record: Homo sapiens; assay: Covalent inhibition of human SCP1 C148A mutant using pNPP as substrate preincubated for 0.5 to 8 hrs followed by substrate addition by absorbance based analysis; conditions: time 0.5-8 hrs
Homo sapiens [6] = species on record: Homo sapiens; assay: Covalent inhibition of human SCP1 C92S mutant using pNPP as substrate preincubated for 0.5 to 8 hrs followed by substrate addition by absorbance based analysis; conditions: time 0.5-8 hrs
Homo sapiens [7] = species on record: Homo sapiens; assay: Covalent inhibition of human SCP1 C181A mutant using pNPP as substrate preincubated for 0.5 to 8 hrs followed by substrate addition by absorbance based analysis; conditions: time 0.5-8 hrs
Homo sapiens [8] = species on record: Homo sapiens; assay: Covalent binding affinity to human SCP1 C181A mutant assessed as covalent adduct formation incubated for overnight by MALDI-TOF analysis
Homo sapiens [9] = species on record: Homo sapiens; assay: Covalent binding affinity to human SCP1 C92 mutant assessed as covalent adduct formation incubated for overnight by MALDI-TOF analysis
[10] = target: T2, Tyrosine-protein phosphatase non-receptor type 1 (Homo sapiens) (UniProt P18031); assay: Inhibition of human PTP1B (1 to 321 residues) expressed in Escherichia coli BL21 (DE3) using pNPP as substrate at up to 200 uM preincubated for 4 hrs followed by substrate addition by absorption based analysis; conditions: dose microM <=200, time 4.0 hrs
T2 sequence (whole entry): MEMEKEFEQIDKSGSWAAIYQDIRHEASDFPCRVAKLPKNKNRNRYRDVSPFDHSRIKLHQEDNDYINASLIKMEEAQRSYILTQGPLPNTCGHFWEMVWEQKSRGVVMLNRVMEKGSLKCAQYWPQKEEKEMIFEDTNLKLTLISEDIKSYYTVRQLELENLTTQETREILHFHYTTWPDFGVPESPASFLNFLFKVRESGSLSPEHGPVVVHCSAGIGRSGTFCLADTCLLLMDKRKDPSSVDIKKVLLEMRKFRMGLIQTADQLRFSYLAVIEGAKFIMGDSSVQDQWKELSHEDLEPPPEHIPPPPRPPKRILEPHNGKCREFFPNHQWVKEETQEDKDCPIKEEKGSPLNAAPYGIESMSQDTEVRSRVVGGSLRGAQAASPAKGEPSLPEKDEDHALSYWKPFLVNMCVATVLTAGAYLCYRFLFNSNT

[11] = target: T3, Receptor-type tyrosine-protein phosphatase C (Homo sapiens) (UniProt P08575); assay: Inhibition of CD45 (unknown origin) at 25 to 30 uM; conditions: dose 25-30 µM
T3 sequence (whole entry): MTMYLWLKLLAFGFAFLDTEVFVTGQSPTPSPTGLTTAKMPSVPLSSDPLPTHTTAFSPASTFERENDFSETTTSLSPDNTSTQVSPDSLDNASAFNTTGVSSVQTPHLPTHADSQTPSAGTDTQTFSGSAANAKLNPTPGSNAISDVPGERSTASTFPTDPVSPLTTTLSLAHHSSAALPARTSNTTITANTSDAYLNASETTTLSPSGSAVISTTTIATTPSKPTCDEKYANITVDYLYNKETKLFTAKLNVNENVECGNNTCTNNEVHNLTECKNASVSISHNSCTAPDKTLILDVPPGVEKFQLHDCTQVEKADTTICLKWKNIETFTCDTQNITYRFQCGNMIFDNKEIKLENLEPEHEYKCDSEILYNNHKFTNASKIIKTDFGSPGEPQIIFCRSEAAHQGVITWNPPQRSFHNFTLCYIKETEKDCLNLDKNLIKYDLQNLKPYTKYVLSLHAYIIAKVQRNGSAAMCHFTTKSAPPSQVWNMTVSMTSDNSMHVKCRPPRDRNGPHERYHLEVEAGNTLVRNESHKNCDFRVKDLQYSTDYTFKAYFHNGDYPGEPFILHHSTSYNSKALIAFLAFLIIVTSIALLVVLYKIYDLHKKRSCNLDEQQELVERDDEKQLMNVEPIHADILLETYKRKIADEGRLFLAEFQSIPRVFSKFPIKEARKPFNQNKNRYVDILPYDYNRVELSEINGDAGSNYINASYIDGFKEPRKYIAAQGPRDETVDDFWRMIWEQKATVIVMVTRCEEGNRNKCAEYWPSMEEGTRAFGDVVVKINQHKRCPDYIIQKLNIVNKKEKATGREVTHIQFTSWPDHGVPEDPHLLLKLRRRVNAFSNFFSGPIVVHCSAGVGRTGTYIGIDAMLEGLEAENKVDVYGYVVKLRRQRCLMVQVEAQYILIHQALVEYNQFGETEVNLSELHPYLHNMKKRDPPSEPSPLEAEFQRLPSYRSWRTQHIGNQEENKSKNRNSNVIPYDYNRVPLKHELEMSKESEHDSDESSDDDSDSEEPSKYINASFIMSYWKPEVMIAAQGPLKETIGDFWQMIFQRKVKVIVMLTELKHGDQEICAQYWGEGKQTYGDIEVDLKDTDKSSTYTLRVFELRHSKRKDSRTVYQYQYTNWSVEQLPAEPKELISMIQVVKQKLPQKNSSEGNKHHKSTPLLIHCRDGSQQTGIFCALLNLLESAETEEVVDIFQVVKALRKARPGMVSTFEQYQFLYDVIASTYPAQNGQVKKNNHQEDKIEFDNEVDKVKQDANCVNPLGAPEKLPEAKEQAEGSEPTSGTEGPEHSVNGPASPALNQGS

[12] = target: Dual specificity protein phosphatase 3 (Homo sapiens) (UniProt P51452); assay: Inhibition of VHR (unknown origin) at 25 to 30 uM; conditions: dose 25-30 µM
Chain of Dual specificity protein phosphatase 3 (Homo sapiens) (P51452 whole entry, looked up): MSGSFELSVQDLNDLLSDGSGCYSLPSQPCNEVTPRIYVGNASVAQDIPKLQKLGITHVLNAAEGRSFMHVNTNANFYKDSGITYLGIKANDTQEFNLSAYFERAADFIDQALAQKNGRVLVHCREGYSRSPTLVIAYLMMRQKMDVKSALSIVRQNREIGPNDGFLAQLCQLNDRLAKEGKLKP

[13] = target: T4, Tyrosine-protein phosphatase non-receptor type 22 (Homo sapiens) (UniProt Q9Y2R2); assay: Inhibition of LYP (unknown origin) at 25 to 30 uM; conditions: dose 25-30 µM
T4 sequence (whole entry): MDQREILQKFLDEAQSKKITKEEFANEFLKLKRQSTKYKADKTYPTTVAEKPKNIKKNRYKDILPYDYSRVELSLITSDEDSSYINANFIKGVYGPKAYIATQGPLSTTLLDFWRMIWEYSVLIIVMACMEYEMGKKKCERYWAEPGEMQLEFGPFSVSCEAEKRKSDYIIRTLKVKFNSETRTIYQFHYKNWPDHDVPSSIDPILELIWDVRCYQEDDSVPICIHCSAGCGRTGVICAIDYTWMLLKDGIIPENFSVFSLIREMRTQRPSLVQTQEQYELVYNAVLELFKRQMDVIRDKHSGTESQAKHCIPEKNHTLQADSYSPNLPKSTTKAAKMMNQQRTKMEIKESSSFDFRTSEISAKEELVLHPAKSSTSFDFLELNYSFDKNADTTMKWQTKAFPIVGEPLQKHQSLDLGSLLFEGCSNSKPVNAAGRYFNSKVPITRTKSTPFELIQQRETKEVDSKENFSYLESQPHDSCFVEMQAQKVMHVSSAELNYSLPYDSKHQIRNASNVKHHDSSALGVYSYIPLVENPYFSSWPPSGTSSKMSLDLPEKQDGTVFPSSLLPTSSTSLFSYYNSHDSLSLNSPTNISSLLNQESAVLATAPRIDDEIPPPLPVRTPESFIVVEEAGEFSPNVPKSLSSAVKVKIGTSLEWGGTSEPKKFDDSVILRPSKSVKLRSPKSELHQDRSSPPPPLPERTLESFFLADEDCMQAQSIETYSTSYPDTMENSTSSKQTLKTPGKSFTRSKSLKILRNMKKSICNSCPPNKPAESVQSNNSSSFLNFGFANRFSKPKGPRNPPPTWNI

[14] = test system: Schizosaccharomyces pombe; assay: Time dependent inhibition of Schizosaccharomyces pombe wild type FCP1 (148 to 641 residues) using pNPP as substrate measured upto 18 hrs by absorbance based assay; conditions: time hrs <=18
[15] = test system: Schizosaccharomyces pombe; assay: Inhibition of Schizosaccharomyces pombe wild type FCP1 (148 to 641 residues) assessed as reduction in enzymatic activity using pNPP as substrate at 100 uM measured up to 18 hrs by absorbance based assay relative to control; conditions: time hrs <=18
[16] = Downregulation of REST protein expression in HEK293 cells incubated for 3 days with media replenishment for every 24 hrs by immunoblot analysis; format: functional, cell-based; conditions: Homo sapiens
[17] = Downregulation of REST protein expression in HEK293 cells at 3 uM incubated for 3 days with media replenishment for every 24 hrs by immunoblot analysis relative to control; format: functional, Homo sapiens; conditions: time 3 day
[18] = Downregulation of REST protein expression in HEK293 cells at 5 uM incubated for 3 days with media replenishment for every 24 hrs by immunoblot analysis relative to control; format: functional, Homo sapiens; conditions: time 3 day
[19] = Downregulation of REST protein expression in HEK293 cells at 10 uM incubated for 3 days with media replenishment for every 24 hrs by immunoblot analysis relative to control; format: functional, Homo sapiens; conditions: time 3 day
[20] = Downregulation of REST protein expression in HEK293 cells transfected with wild type SCP1 at 10 uM incubated for 48 hrs with media replenishment for every 24 hrs by immunoblot analysis relative to control; format: functional, Homo sapiens
HEK293 [21] = assay: Recovery of REST protein expression in HEK293 cells at 10 uM incubated for 2 days with media replenishment for every 24 hrs followed by compound washout and measured after 12 hrs by immunoblot analysis relative to control; format: functional, Homo sapiens; conditions: time 2 day
HEK293 [22] = assay: Recovery of REST protein expression in HEK293 cells at 10 uM incubated for 2 days with media replenishment for every 24 hrs followed by compound washout and measured after 24 to 48 hrs by immunoblot analysis relative to control; format: functional, Homo sapiens; conditions: time 2 day
HEK293 [23] = assay: Recovery of REST protein expression in HEK293 cells at 10 uM incubated for 2 days with media replenishment for every 24 hrs followed by compound washout and measured after 3 days by immunoblot analysis relative to control; format: functional, Homo sapiens; conditions: time 2 day
[24] = Upregulation of DYRK1a mRNA expression in HEK293 cells assessed as fold increase by qRT-PCR analysis; format: functional, Homo sapiens
[25] = Upregulation of ELAVL1 mRNA expression in HEK293 cells assessed as fold increase by qRT-PCR analysis; format: functional, Homo sapiens
[26] = Upregulation of USP37 mRNA expression in HEK293 cells assessed as fold increase by qRT-PCR analysis; format: functional, Homo sapiens
[27] = Upregulation of CELSR3 mRNA expression in HEK293 cells assessed as fold increase by qRT-PCR analysis; format: functional, Homo sapiens
[28] = Upregulation of SCN2 mRNA expression in HEK293 cells assessed as fold increase by qRT-PCR analysis; format: functional, Homo sapiens
[29] = target: T5, Tyrosine-protein phosphatase non-receptor type 11 (Homo sapiens) (UniProt Q06124); assay: Inhibition of SHP2 (unknown origin) at 25 to 30 uM; conditions: dose 25-30 µM
T5 sequence (whole entry): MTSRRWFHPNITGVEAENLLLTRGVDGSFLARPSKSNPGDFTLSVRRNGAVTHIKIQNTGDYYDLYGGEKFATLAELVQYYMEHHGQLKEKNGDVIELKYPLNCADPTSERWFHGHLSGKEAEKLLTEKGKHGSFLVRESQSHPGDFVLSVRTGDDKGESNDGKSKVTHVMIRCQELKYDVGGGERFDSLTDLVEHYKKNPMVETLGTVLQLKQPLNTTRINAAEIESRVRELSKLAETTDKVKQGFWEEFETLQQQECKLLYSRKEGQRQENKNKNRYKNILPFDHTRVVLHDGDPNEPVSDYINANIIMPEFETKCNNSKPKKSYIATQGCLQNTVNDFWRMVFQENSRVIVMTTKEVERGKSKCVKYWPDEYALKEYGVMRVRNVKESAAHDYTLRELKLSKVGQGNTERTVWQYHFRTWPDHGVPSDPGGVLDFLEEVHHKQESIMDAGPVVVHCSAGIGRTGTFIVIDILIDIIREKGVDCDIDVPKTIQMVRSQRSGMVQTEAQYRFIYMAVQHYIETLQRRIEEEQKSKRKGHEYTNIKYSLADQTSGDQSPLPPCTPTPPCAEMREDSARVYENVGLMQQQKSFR

Homo sapiens [30] = species on record: Homo sapiens; assay: Inhibition of PP1 (unknown origin) using pNPP as substrate incubated for 4 hrs by absorbance based analysis

- inhibition [4]: inactive
- inhibition (Homo sapiens [5]): Active
- inhibition (Homo sapiens [6]): inactive
- inhibition (Homo sapiens [7]): Active
- Activity (Homo sapiens [8]): inactive
- Activity (Homo sapiens [9]): Active
- inhibition [10]: inactive
- inhibition [11]: inactive
- inhibition [12]: inactive
- inhibition [13]: inactive
- inhibition [14]: inactive
- inhibition [15]: 50%
- EC50 [16]: 1500 nM
- inhibition [29]: inactive
- inhibition (Homo sapiens [30]): inactive
Structure (SMILES): O=C(NCCCNS(=O)(=O)c1ccc(OC(F)(F)F)cc1)C1=Cc2ccccc2S1(=O)=O
- Activity (HEK293 [1]): Active
- Activity [2]: 60%
- Activity [3]: 20%
- Activity [17]: 40%
- Activity [18]: 75%
- Activity [19]: 7%
- Activity [20]: 80%
- Activity (HEK293 [21]): 24%
- Activity (HEK293 [22]): 50%
- Activity (HEK293 [23]): 77%
- fold change (FC) [24]: 2
- fold change (FC) [25]: 2
- fold change (FC) [26]: 2
- fold change (FC) [27]: 2
- fold change (FC) [28]: 2
